Assay results published in patent publication EP2787958B1, “CHELIDONIUM MAJUS EXTRACTS AND THEIR USE IN THE TREATMENT OF SKIN DISORDERS AND PROMOTION OF SKIN REGENERATION” (priority 2011, dated 2013).
Like-named read-outs stand apart in the source and are kept apart here.

How the values were obtained:
interleukin 1β (IL-1β) = assay: Inflammatory cytokines in cell supernatant (Mosaic ELISA microarray): IL-1β; assay type: cell-based, Human; conditions: for IL-1β ng/(ml* No. of cells from photo) ± SD: 24 hours; for IL-1β production (effect in words): 1-10 µM
Experimental: (§1) The inflammatory cytokines, CD40 ligand (CD40L), interferon γ (INF-γ), interleukin 1α (IL-1α), interleukin 1β (IL-1β), interleukin 6 (IL-6), interleukin 8 (IL-8), interleukin 17 (IL-17) and tumour necrosis factor α (TNF-α) were determined qualitatively and quantitatively. Each measurement was performed in duplicate using a Mosaic™ ELISA protein microarray assay system from R&D System in accordance with the supplier's instructions. Furthermore, with the aim of obtaining a correlation model between light signal intensity and cytokine concentration, a calibration curve using 6 concentrations was performed for each of them. Analysis of the data was performed using the dedicated Q-View™ Imager software package from Quansys Biosciences

interleukin 6 (IL-6) = assay: Inflammatory cytokines in cell supernatant (Mosaic ELISA microarray): IL-6; assay type: cell-based, Human; conditions: for IL-6 ng/(ml* No. of cells from photo) ± SD: 24 hours; for IL-6 production (effect in words): 1-10 µM
Experimental: as §1

[1] = Anti-radical activity (decay of the DPPH radical); assay type: biochemical; conditions: for Anti-radical (skin protective): 24 hours
Experimental: With regard to assays aimed at evaluating anti-radical activity, a chemical test was used where the decay of the diphenylpicrylhydrazyl (DPPH) radical is assessed in the absence or in the presence of the test substances. Indeed, the DPPH radical is used to test the ability of substances to act as free radical scavengers. DPPH in solution has a purple colour with a maximum absorbance peak at 517 nm which changes to yellow-colourless when this radical extracts a hydrogen atom from a radical scavenger to give rise to the reduced form DPPH-H. The assay has been conducted in quadruplicate in 96 well microplates (SARSTEDT Tissue Culture Plate 96-well flat bottom cell+). 50 µl of an ethanol solution of the test substance at 2X concentration and then 50 µl of a 200 µM solution of DPPH (MW 168,18, Aldrich 2,2-di(4-tert-octylphenyl)-1-picrylhydrazyl, free radical Lot# MKBF7574V Cat N° 257621-100 mg) have been added to each well of the microplate. A positive control consisting of 0.1 mM vitamin C and a negative control consisting of ethanol alone were included in each microplate. After 30 minutes from the addition of DPPH, photographs of the plates were taken (Canon PowerShot A610 5.0 Mpixels) and read spectrophotometrically at 530 nm.
Based on the analysis of the results reported in Table 9, some substances were selected for further characterisation of their anti-radical activity. For the selected substances, dose-activity curves were obtained and the IC50 value were computed using a non-linear regression model with the Hill equation at variable slope. Such substances had been selected due to both their anti-radical potential and the easiness of their isolation/production. The selection of substances was made in view of cosmetics applications. Moreover their activity on human dermal fibroblasts (HDF) is expected to be useful also for the development of dermatological medications. The selected substances are discussed below.

HDF cells [2] = assay: Summary of uses and toxic effects deduced from the cell assays (Table 1); assay type: cell-based, Human; conditions: for Anti-fibrotic (prevention of scar formation, also from acne) / Cytoprotective (antioxidant, anti-inflammatory and anti-ageing; useful also in the treatment of acne) / Cytotoxic / Irritant / Wound-healing: 24 hours
Experimental: Antiradical (skin protective): this is deduced from the free radical scavenger effects.
Revitalizing: this is deduced from the increased mitochondrial dehydrogenase effect.
Cytoprotective, with regard to oxidative damage (antioxidant, anti-inflammatory and anti-ageing): this is deduced from antagonising the stimulation of IL-1β and/or IL-6 induced by 100 µM H2O2 and from the absence of changes in cell morphology similar to the ones due to cell senescence.
Wound healing: this is deduced from the effect of inhibiting the production of IL-1β and by the effect of stimulating cell proliferation under standard growth conditions.
Cytotoxicity: this is deduced from the effect of reducing mitochondrial dehydrogenase activity or from the presence of morphologies characteristic of cell senescence.
Irritation: this is deduced from the effect of increased production of IL-6 and/or IL-1β under standard growth conditions.
Said uses in the fields of medicine and cosmetics or the toxic effects of the substances of the invention at a given dosage, for 24 hours, are summarized in Table 1 below.

[3] = tested on: collagen produced by HDF cells; assay: Quantity of collagen produced by the cells (elution of Sirius Red)
[4] = tested on: Human dermal fibroblasts (HDF); assay: Mitochondrial dehydrogenase activity (WST-1 formazan assay) in HDF cells; conditions: for Revitalizing agent: 24 hours; for activity at 1 µM / activity at 10 µM: Homo sapiens, Fibroblast, read-out: % mitochondrial dehydrogenase activity ± SD; for mitochondrial dehydrogenase activity (effect in words): fibroblasts
HDF cells [5] = assay: Evaluation of cell proliferation (counting of Sirius Red stained cells in photographs); conditions: 24 hours
[6] = Dose 1 µm (coptisine: 1 pm [sic])

SMILES: c1c2c(cc3c1OCO3)-c1cc3ccc4c(c3c[n+]1CC2)OCO4 [coptisine]
- IL-1β ng/(ml* No. of cells from photo) ± SD (interleukin 1β (IL-1β); 1 µM, 34 ng/ml TGF-β1): 207±8 ng/(ml* No. of cells from photo)
- IL-1β ng/(ml* No. of cells from photo) ± SD (interleukin 1β (IL-1β); 1 µM, 100 µM H2O2): 174±20 ng/(ml* No. of cells from photo)
- IL-1β ng/(ml* No. of cells from photo) ± SD (interleukin 1β (IL-1β); 1 µM, Standard conditions): 137±12 ng/(ml* No. of cells from photo)
- IL-1β ng/(ml* No. of cells from photo) ± SD (interleukin 1β (IL-1β); 10 µM, 34 ng/ml TGF-β1): 267±15 ng/(ml* No. of cells from photo)
- IL-1β ng/(ml* No. of cells from photo) ± SD (interleukin 1β (IL-1β); 10 µM, 100 µM H2O2): 236±8 ng/(ml* No. of cells from photo)
- IL-1β ng/(ml* No. of cells from photo) ± SD (interleukin 1β (IL-1β); 10 µM, Standard conditions): 155±7 ng/(ml* No. of cells from photo)
- IL-1β production (effect in words) (interleukin 1β (IL-1β); 34 ng/ml TGF-β1): tendency to increase IL-1β production in a dose-dependent manner
- IL-1β production (effect in words) (interleukin 1β (IL-1β); 100 µM H2O2): tendency to increase IL-1β production in a dose-dependent manner
- IL-1β production (effect in words) (interleukin 1β (IL-1β); standard conditions): tendency to increase IL-1β production in a dose-dependent manner
- IL-6 ng/(ml* No. of cells from photo) ± SD (interleukin 6 (IL-6); 1 µM, 34 ng/ml TGF-β1): 1027±36 ng/(ml* No. of cells from photo)
- IL-6 ng/(ml* No. of cells from photo) ± SD (interleukin 6 (IL-6); 1 µM, 100 µM H2O2): 1034±27 ng/(ml* No. of cells from photo)
- IL-6 ng/(ml* No. of cells from photo) ± SD (interleukin 6 (IL-6); 1 µM, Standard conditions): 612±31 ng/(ml* No. of cells from photo)
- IL-6 ng/(ml* No. of cells from photo) ± SD (interleukin 6 (IL-6); 10 µM, 34 ng/ml TGF-β1): 1244±58 ng/(ml* No. of cells from photo)
- IL-6 ng/(ml* No. of cells from photo) ± SD (interleukin 6 (IL-6); 10 µM, 100 µM H2O2): 1710±114 ng/(ml* No. of cells from photo)
- IL-6 ng/(ml* No. of cells from photo) ± SD (interleukin 6 (IL-6); 10 µM, Standard conditions): 751±93 ng/(ml* No. of cells from photo)
- IL-6 production (effect in words) (interleukin 6 (IL-6); 34 ng/ml TGF-β1): tendency to increase IL-6 production in a dose-dependent manner
- IL-6 production (effect in words) (interleukin 6 (IL-6); 100 µM H2O2): tendency to increase IL-6 production in a dose-dependent manner
- IL-6 production (effect in words) (interleukin 6 (IL-6); standard conditions): tendency to increase IL-6 production in a dose-dependent manner
- % DPPH activity ([1]; 1 mM, 30 minutes): 114%
- Anti-radical (skin protective) [1, 6]: No
- Anti-radical (skin protective) ([1]; Dose 10 µm): No
- Anti-fibrotic (prevention of scar formation, also from acne) (HDF cells [2]; [6]): No
- Cytoprotective (antioxidant, anti-inflammatory and anti-ageing; useful also in the treatment of acne) (HDF cells [2]; [6]): No
- Cytotoxic (HDF cells [2]; [6]): No
- Irritant (HDF cells [2]; [6]): Yes (↑IL-6, ↑IL-1β)
- Wound-healing (HDF cells [2]; [6]): No
- Anti-fibrotic (prevention of scar formation, also from acne) (HDF cells [2]; Dose 10 µm): No
- Cytoprotective (antioxidant, anti-inflammatory and anti-ageing; useful also in the treatment of acne) (HDF cells [2]; Dose 10 µm): No
- Cytotoxic (HDF cells [2]; Dose 10 µm): No
- Irritant (HDF cells [2]; Dose 10 µm): Yes (↑IL-6, ↑IL-1β)
- Wound-healing (HDF cells [2]; Dose 10 µm): No
- concentrations at which toxic (irritant) effects are shown (HDF cells [2]; exposure for 24 hours): greater than or equal to 1 µM
- collagen production (effect in words) ([3]; 1-10 µM (1 µM and 10 µM), 34 ng/ml TGF-β1): stimulates collagen production in a dose-dependent manner
- collagen production (effect in words) ([3]; 1-10 µM (1 µM and 10 µM), 100 µM H2O2): stimulates collagen production in a dose-dependent manner
- collagen production (effect in words) ([3]; 1-10 µM, standard conditions): stimulates collagen production in a dose-dependent manner
- concentrations below which no significant effects on mitochondrial dehydrogenase activity are shown [4]: below 1 µM
- Revitalizing agent [4, 6]: No
- Revitalizing agent ([4]; Dose 10 µm): No
- activity at 1 µM ([4]; 24 h): 84.5 ± 3.17%
- activity at 10 µM ([4]; 24 h): 62.3 ± 11.8%
- activity at 1 µM ([4]; 42 h): 90.1 ± 2.3%
- activity at 10 µM ([4]; 42 h): 139 ± 5.34%
- mitochondrial dehydrogenase activity (effect in words) ([4]; low dose for a prolonged period of time, to a lesser extent): stimulatory effects
- mitochondrial dehydrogenase activity (effect in words) ([4]; overall): mostly inhibitory effects
- No. of cells from photo ± SD (HDF cells [5]; 1 µM, 34 ng/ml TGF-β1): 111±18
- No. of cells from photo ± SD (HDF cells [5]; 1 µM, 100 µM H2O2): 143±17
- No. of cells from photo ± SD (HDF cells [5]; 1 µM, Standard conditions): 144±12
- No. of cells from photo ± SD (HDF cells [5]; 10 µM, 34 ng/ml TGF-β1): 86±6
- No. of cells from photo ± SD (HDF cells [5]; 10 µM, 100 µM H2O2): 114±0
- No. of cells from photo ± SD (HDF cells [5]; 10 µM, Standard conditions): 129±27
